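Five concentrations, 48 hours, 96-well plates. At the GI50, growth is halved. The concentration for full growth arrest is given as TGI.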
Experiments:
Assay in all cases: DTP human tumour cell line panel, 48 h
ACHN renal = test system: ACHN renal
CCRF-CEM leukemia = test system: CCRF-CEM leukemia
DU-145 prostate = test system: DU-145 prostate
HS 578T breast = test system: HS 578T breast
HT29 colon = test system: HT29 colon
NCI-H522 lung = test system: NCI-H522 lung
NCI/ADR-RES ovarian = test system: NCI/ADR-RES ovarian
OVCAR-5 ovarian = test system: OVCAR-5 ovarian
SR leukemia = test system: SR leukemia
SW-620 colon = test system: SW-620 colon

Row | Structure (SMILES) | GI50 (ACHN renal) [µM] | TGI (ACHN renal) [µM] | GI50 (CCRF-CEM leukemia) [µM] | TGI (CCRF-CEM leukemia) [µM] | GI50 (DU-145 prostate) [µM] | TGI (DU-145 prostate) [µM] | GI50 (HS 578T breast) [µM] | TGI (HS 578T breast) [µM] | GI50 (HT29 colon) [µM] | TGI (HT29 colon) [µM] | GI50 (NCI-H522 lung) [µM] | TGI (NCI-H522 lung) [µM] | GI50 (NCI/ADR-RES ovarian) [µM] | TGI (NCI/ADR-RES ovarian) [µM] | GI50 (OVCAR-5 ovarian) [µM] | TGI (OVCAR-5 ovarian) [µM] | GI50 (SR leukemia) [µM] | TGI (SR leukemia) [µM] | GI50 (SW-620 colon) [µM] | TGI (SW-620 colon) [µM]
1 | COc1cccc(-c2nn(-c3ccccc3)cc2-c2ccnc(NCCNS(=O)(=O)c3ccc(C(F)(F)F)cc3)c2)c1 | 3.4 | > 100 | 2.34 | > 100 | 5.09 | > 100 | 4.07 | > 100 | 2.32 | 5.75 | 2.33 | 12.5 | 2.79 | 14.4 | 4.98 | > 100 | 1.77 | 4.6 | 4.16 | > 100
2 | Cc1cc(Cl)ccc1Nc1sc(C(=O)c2cc3cc(Cl)ccc3o2)c(N)c1C#N | – | 98.1 | – | > 52.8 | – | > 100 | – | > 100 | – | > 100 | – | 21.9 | – | > 23.5 | – | > 100 | – | > 100 | – | > 69.9
3 | Cc1cc(NC(=O)c2ccc(NS(=O)(=O)CCO)cc2N2CCC3(CC2)CC3)nc(N2CCC(F)(F)CC2)n1 | 13.5 | 26.4 | 10 | > 66 | 0.0531 | 15.8 | 0.746 | 21.9 | 0.0755 | 14.2 | 12.9 | 27.3 | 0.428 | 16.1 | 11.4 | 23.6 | 1.68 | 25.3 | 13.1 | 27.1
4 | Cc1cc(N(CCOS(C)(=O)=O)CCOS(C)(=O)=O)ccc1C=Nc1ccc(-c2csc(-c3ccccc3)n2)c(Cl)c1 | – | 22.2 | – | 23.3 | – | 35.6 | – | 49.8 | – | 31.5 | – | 3.02 | – | 71.5 | – | 55 | – | 17.9 | – | > 64.7
